According to patent US8853392B2, “Benzamide mGluR5 positive allosteric modulators and methods of making and using same” (Vanderbilt University, priority 2007, dated 2014):
Where two headings read alike, the source gives them in different places.

Target: T1, rat mGluR5 (Rattus norvegicus, UniProt P31424)
T1 construct: expressed in transfected cells; host or cells: human embryonic kidney (HEK) cells
Assay: potentiation of mGluR5 response to glutamate, Ca2+ fluorescence (FDSS) in HEK cells transfected with rat mGluR5
Type: cell-based
Protocol: Human embryonic kidney (HEK) cells transfected with rat mGluR5 were plated in clear bottom assay plates for assay in a Functional Drug Screening System (FDSS). The cells were loaded with a Ca^2+-sensitive fluorescent dye (e.g., Fluo-4), and the plates were washed and placed in the FDSS instrument. After establishment of a fluorescence baseline for twelve seconds, the compounds of the present invention were added to the cells, and the response in cells was measured. Five minutes later, an mGluR5 agonist (e.g., glutamate, 3,5-dihydroxyphenylglycine, or quisqualate) was added to the cells, and the response of the cells was measured. Potentiation of the agonist response of mGluR5 by the compounds in the present invention was observed as an increase in response to non-maximal concentrations of agonist (here, glutamate) in the presence of compound compared to the response to agonist in the absence of compound.
The above described assay operated in two modes. In the first mode, a range of concentrations of the present compounds were added to cells, followed by a single fixed concentration of agonist. If a compound acted as a potentiator, an EC50 value for potentiation and a maximum extent of potentiation by the compound at this concentration of agonist was determined by non-linear curve fitting. In the second mode, several fixed concentrations of the present compounds were added to various wells on a plate, followed by a range of concentrations of agonist for each concentration of present compound; the EC50 values for the agonist at each concentration of compound were determined by non-linear curve fitting. A decrease in the EC50 value of the agonist with increasing concentrations of the present compounds (a leftward shift of the agonist concentration-response curve) is an indication of the degree of mGluR5 potentiation at a given concentration of the present compound. An increase in the EC50 value of the agonist with increasing concentrations of the present compounds (a rightward shift of the agonist concentration-response curve) is an indication of the degree of mGluR5 antagonism at a given concentration of the present compound. The second mode also indicates whether the present compounds also affect the maximum response to mGluR5 to agonists.
Human embryonic kidney (HEK) cells transfected with rat mGluR5 were plated in clear-bottomed, poly-D-lysine-coated assay plates in glutamate-glutamine-free medium growth and incubated overnight at 37° C. in 5% CO2. The following day, cells were loaded with 2 μM calcium indicator dye, fluo-4 AM, for 1 h at 37° C. Dye was removed and replaced with assay buffer containing 1× Hanks balanced salt solution (Invitrogen, Carlsbad, Calif.), 20 mM HEPES, and 2.5 mM probenecid, pH 7.4. Cell plates were then loaded into the Functional Drug Screening System 6000 (FDSS 6000, Hamamatsu, Japan). After establishment of a fluorescence baseline for twelve seconds, the compounds of the present invention were added to the cells, and the response in cells was measured. Five minutes later, an mGluR5 agonist (e.g., glutamate, 3,5-dihydroxyphenylglycine, or quisqualate) was added to the cells, and the response of the cells was measured during a 1 minute incubation with agonists. Typically, the effect of test compounds of the present invention was on an EC20 concentration of glutamate was measured. All test compounds were dissolved and diluted in 100% DMSO and then serially diluted into assay buffer for a 2.5× stock in 0.25% DMSO; stock compounds were then added to the assay for a final DMSO concentration of 0.1%. Calcium fluorescence measures were recorded as fold over basal fluorescence; raw data was then normalized to the maximal response to agonist. Potentiation of the agonist response of mGluR5 by the compounds in the present invention was observed as an increase in response to non-maximal concentrations of agonist (here, glutamate) in the presence of compound compared to the response to agonist in the absence of compound. […]

[1] = Table 1, EC50 for potentiating the mGluR5 receptor, unit inferred, read-out: EC50
[2] = HEK293, maximum extent of potentiation, normalized to maximal response to glutamate, SAR tables, read-out: % Glu Max
[3] = potentiation of glutamate response, HEK cells transfected with rat mGluR5, SAR tables, read-out: EC50

T1 sequence (P31424 21-1203): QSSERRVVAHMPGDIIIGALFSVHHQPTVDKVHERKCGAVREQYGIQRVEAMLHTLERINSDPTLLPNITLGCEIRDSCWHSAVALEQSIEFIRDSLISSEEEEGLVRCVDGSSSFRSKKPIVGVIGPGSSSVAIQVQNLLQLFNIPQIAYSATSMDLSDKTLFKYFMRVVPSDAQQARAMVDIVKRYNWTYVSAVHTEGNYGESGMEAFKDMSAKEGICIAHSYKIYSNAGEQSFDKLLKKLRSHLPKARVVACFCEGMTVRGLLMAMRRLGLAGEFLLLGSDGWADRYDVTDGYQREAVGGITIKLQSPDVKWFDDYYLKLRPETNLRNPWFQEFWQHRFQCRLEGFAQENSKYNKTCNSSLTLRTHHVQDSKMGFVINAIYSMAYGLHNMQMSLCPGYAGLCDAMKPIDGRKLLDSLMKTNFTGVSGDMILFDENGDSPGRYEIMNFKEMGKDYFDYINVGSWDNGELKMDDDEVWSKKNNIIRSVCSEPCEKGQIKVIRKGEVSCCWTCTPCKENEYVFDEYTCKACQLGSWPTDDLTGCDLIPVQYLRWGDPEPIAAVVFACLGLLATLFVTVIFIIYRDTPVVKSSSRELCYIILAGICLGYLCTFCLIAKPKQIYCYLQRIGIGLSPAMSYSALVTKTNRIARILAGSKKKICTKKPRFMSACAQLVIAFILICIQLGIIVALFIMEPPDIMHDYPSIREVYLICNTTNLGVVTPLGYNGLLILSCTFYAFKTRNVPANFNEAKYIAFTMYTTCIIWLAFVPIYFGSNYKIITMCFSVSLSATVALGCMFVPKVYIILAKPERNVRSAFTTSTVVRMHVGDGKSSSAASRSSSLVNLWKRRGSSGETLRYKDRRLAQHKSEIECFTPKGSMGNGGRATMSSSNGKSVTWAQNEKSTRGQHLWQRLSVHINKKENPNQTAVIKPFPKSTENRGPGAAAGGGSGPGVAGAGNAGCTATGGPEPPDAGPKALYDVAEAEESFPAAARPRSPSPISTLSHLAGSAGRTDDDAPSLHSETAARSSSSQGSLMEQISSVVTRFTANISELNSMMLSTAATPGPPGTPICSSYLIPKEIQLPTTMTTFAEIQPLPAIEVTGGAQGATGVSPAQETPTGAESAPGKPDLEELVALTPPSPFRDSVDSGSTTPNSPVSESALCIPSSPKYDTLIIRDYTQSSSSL

Row | Structure (SMILES) | EC50 [1] [nM] | Emax [2] [%] | EC50 [3] [nM] | further results
1 | O=C(c1ccc(C#Cc2ccccc2)cc1)N1CCC(NCCN2CCOCC2)CC1 [(4-(2-morpholinoethylamino)piperidin-1-yl)(4-(phenylethynyl)phenyl)methanone] | 383 |  |  | 
2 | N#CC1(c2ccccc2)CCN(C(=O)c2ccc(C#Cc3ccccc3)cc2)CC1 [4-phenyl-1-(4-(phenylethynyl)benzoyl)piperidine-4-carbonitrile] |  |  |  | EC50 (EC50, Table 1, EC50 for potentiating the mGluR5 receptor, unit inferred): 1140 nM
3 | O=C(NCCc1ccc(Cl)cc1)c1ccc(C#Cc2ccccc2)cc1 [N-(4-chlorophenethyl)-4-(phenylethynyl)benzamide] | 177 |  |  | 
4 | O=C(c1ccc(C#CC2CCCCC2)cc1)N1CCC(O)CC1 [Compound 19m, (4-(cyclohexylethynyl)phenyl)(4-hydroxypiperidin-1-yl)methanone] | 1870 | 77 | 1790 | 
5 | Cc1cc(C#Cc2ccc(C(=O)N3CCC(O)CC3)cc2)ccc1F [Compound 19f, (4-((4-fluoro-3-methylphenyl)ethynyl)phenyl)(4-hydroxypiperidin-1-yl)methanone] | 832 | 76 | 500 | 
6 | CC1CCCCN1C(=O)c1ccc(C(=O)Nc2ccc(F)cc2)cc1 (centres unmarked) [N-(4-fluorophenyl)-4-(2-methylpiperidine-1-carbonyl)benzamide] | 3330 |  |  | 
7 | CC(C)C1(O)CCN(C(=O)c2ccc(C#Cc3ccccc3)cc2)CC1 [Compound 7c, (4-hydroxy-4-isopropylpiperidin-1-yl)(4-(phenylethynyl)phenyl)methanone] | 1800 |  | 1770 | Emax (HEK293, read-out: % Glu Max, maximum extent of potentiation, normalized to maximal response to glutamate, SAR tables): 89.1%
8 | O=C(c1ccc(C#Cc2ccccc2F)cc1)N1CCOCC1 [Compound 20i, (4-((2-fluorophenyl)ethynyl)phenyl)(morpholino)methanone] | 12 | 105 | 12 | 
9 | O=C(c1ccc(C#Cc2ccccc2)cc1)N1CCC(O)(c2ccccc2)CC1 [(4-hydroxy-4-phenylpiperidin-1-yl)(4-(phenylethynyl)phenyl)methanone] | 3660 |  |  | 
10 | CCCNC(=O)c1ccc(C#Cc2ccccc2)cc1 [4-(phenylethynyl)-N-propylbenzamide] | 14.7 |  |  | 
11 | N#Cc1ccccc1N1CCN(C(=O)c2ccc(C#Cc3ccccc3)cc2)CC1 | 4200 |  |  | 
12 | O=C(NCCc1cccc(Cl)c1)c1ccc(C#Cc2ccccc2)cc1 [N-(3-chlorophenethyl)-4-(phenylethynyl)benzamide] | 206 |  |  | 
13 | CC1(O)CCN(C(=O)c2ccc(C#Cc3ccc(F)cc3)cc2)CC1 [Compound 20c, (4-((4-fluorophenyl)ethynyl)phenyl)(4-hydroxy-4-methylpiperidin-1-yl)methanone] | 54.2 | 91 | 39.4 | 
14 | CC1(O)CCN(C(=O)c2ccc(C#Cc3ccccc3F)cc2)CC1 [Compound 20a, (4-((2-fluorophenyl)ethynyl)phenyl)(4-hydroxy-4-methylpiperidin-1-yl)methanone] | 37.9 | 86 | 34.9 | 
15 | CCCC1(O)CN(C(=O)c2ccc(C#Cc3ccccc3)cc2)C1 [Compound 9c, (3-hydroxy-3-propylazetidin-1-yl)(4-(phenylethynyl)phenyl)methanone] | 500 | 59.8 | 423 | 
16 | Cc1ccc(C#Cc2ccc(C(=O)N3CCC(O)CC3)cc2)cc1 [Compound 19h] |  |  |  | EC50 (nM) (potentiation of glutamate response, HEK cells transfected with rat mGluR5, SAR tables): inactive
17 | O=C(c1ccc(C#Cc2ccc(F)cc2F)cc1)N1CCC(O)CC1 [Compound 19g, (4-((2,4-difluorophenyl)ethynyl)phenyl)(4-hydroxypiperidin-1-yl)methanone] | 2030 | 58 | 1970 | 
18 | O=C(c1ccc(C#Cc2ccccc2)cc1)N1CCN(c2ccncc2)CC1 [(4-(phenylethynyl)phenyl)(4-(pyridin-4-yl)piperazin-1-yl)methanone] | 3680 |  |  | 

Row | Structure (SMILES) | EC50 [1] [nM] | Emax [2] [%] | EC50 [3] [nM] | further results
19 | O=C(c1ccc(C#Cc2ccccc2)cc1)N1CCOCC1 [morpholino(4-(phenylethynyl)phenyl)methanone] | 5.28 |  |  | 
20 | O=C(c1ccc(C#Cc2ccccc2)cc1)N1CCC(N2CCC2)CC1 [(4-(azetidin-1-yl)piperidin-1-yl)(4-(phenylethynyl)phenyl)methanone] | 1110 |  |  | 
21 | COCCNC1CCN(C(=O)c2ccc(C#Cc3ccccc3)cc2)CC1 [(4-(2-methoxyethylamino)piperidin-1-yl)(4-(phenylethynyl)phenyl)methanone] | 1190 |  |  | 
22 | O=C(NCC1CCCCC1)c1ccc(C#Cc2ccccc2)cc1 [N-(cyclohexylmethyl)-4-(phenylethynyl)benzamide] | 68.7 |  |  | 
23 | O=C(c1ccc(C#Cc2cccc(F)c2)cc1)N1CCC(CO)CC1 [Compound 20f, (4-((3-fluorophenyl)ethynyl)phenyl)(4-(hydroxymethyl)piperidin-1-yl)methanone] | 11.9 | 86 | 11.9 | 
24 | CC1CCC(NC(=O)c2ccc(C#Cc3ccccc3)cc2)CC1 (centres unmarked) [N-(4-methylcyclohexyl)-4-(phenylethynyl)benzamide] | 76.3 |  |  | 
25 | O=C(c1ccc(C#Cc2ccccc2)cc1)N1CCC(NCC2CC2)CC1 [(4-(cyclopropylmethylamino)piperidin-1-yl)(4-(phenylethynyl)phenyl)methanone] | 2790 |  |  | 
26 | O=C(NCCN1CCCCC1)c1ccc(C#Cc2ccccc2)cc1 [4-(phenylethynyl)-N-(2-(piperidin-1-yl)ethyl)benzamide] | 1790 |  |  | 
27 | COc1ccccc1N1CCN(C(=O)c2ccc(C#Cc3ccccc3)cc2)CC1 [(4-(2-methoxyphenyl)piperazin-1-yl)(4-(phenylethynyl)phenyl)methanone] | 2100 |  |  | 
28 | O=C(c1ccc(C#Cc2ccccc2)cc1)N1CCC(O)(c2ccc(Cl)cc2C(F)(F)F)CC1 [(4-(4-chloro-2-(trifluoromethyl)phenyl)-4-hydroxypiperidin-1-yl)(4-(phenylethynyl)phenyl)methanone] | 477 |  |  | 
29 | O=C(c1ccc(C#Cc2cccc(F)c2)cc1)N1CC(O)C1 [Compound 20n, (4-((3-fluorophenyl)ethynyl)phenyl)(3-hydroxyazetidin-1-yl)methanone] | 73 | 104 | 59.5 | 
30 | CC1(O)CCN(C(=O)c2ccc(C#Cc3cccc(F)c3)cc2)CC1 [Compound 20b, (4-((3-fluorophenyl)ethynyl)phenyl)(4-hydroxy-4-methylpiperidin-1-yl)methanone] | 20.6 | 92 | 19.4 | 
31 | O=C(c1ccc(C#Cc2ccc(F)cc2)cc1)N1CC(O)C1 [Compound 20o, (4-((4-fluorophenyl)ethynyl)phenyl)(3-hydroxyazetidin-1-yl)methanone] | 162 | 103 | 155 | 
32 | CCCNC(=O)c1ccc(-c2nc(-c3ccccc3)no2)cc1 [4-(3-phenyl-1,2,4-oxadiazol-5-yl)-N-propylbenzamide] | 2270 |  |  | 
33 | O=C(NCCCO)c1ccc(C#Cc2ccccc2)cc1 [N-(3-hydroxypropyl)-4-(phenylethynyl)benzamide] | 86.2 |  |  | 
34 | O=C(c1ccc(C#Cc2ccccc2)cc1)N1CCN(c2ccccc2F)CC1 [(4-(2-fluorophenyl)piperazin-1-yl)(4-(phenylethynyl)phenyl)methanone] | 5140 |  |  | 
35 | COc1ccc(C2(O)CCN(C(=O)c3ccc(C#Cc4ccccc4)cc3)CC2)cc1 [drawing 173, (4-hydroxy-4-(4-methoxyphenyl)piperidin-1-yl)(4-(phenylethynyl)phenyl)methanone] | 2630 |  |  | 
